Residue numbers refer to the chain shown, from its start. Positions of bridges follow the written chain, without caps; N, C: chain ends. Non-standard residues stand in square brackets, D forms with d. Residues, ends and D or L forms follow the SMILES beside them. *: point of attachment. 5FAM = O=C1OC2(c3ccc(O)cc3Oc3cc(O)ccc32)c2ccc(C(=O)*)cc21; 6FAM = O=C1OC2(c3ccc(O)cc3Oc3cc(O)ccc32)c2cc(C(=O)*)ccc21; S5 = C=CCCC[C@](C)(N)C(=O)O; AEEEA = NCCOCCOCCOCC(=O)O
Experiments:
HeLa cells = experiment: Confocal microscopy of fixed HeLa cells (peptide localisation, endogenous TACC3 and CHC on mitotic spindle); format: cell-based
Procedure: HeLa cells grown on glass coverslips in complete growth medium and treated with 2.5, 5 and 10 μM FAM-peptides for 5 h. Cells were washed with PBS and fixed with PTEMF (20 mM PIPES, pH 6.8, 10 mM EGTA, 1 mM MgCl2, 0.2% Triton X-100 and 4% paraformaldehyde) for 10 min and permeabilized at room temperature in 0.5% Triton-X100 in PBS for 10 min. Cells were blocked in 3% BSA in PBS for 1 h and incubated overnight with primary antibodies diluted in 3% BSA/PBS buffer followed by 1 h incubation with secondary antibodies. Primary antibodies were as follows: mouse anti-CHC (X22; GTX22731; 1:250), rabbit anti-TACC3 (ab134154, Abcam; 1:500). Secondary antibodies were anti-mouse IgG Atto 594 (1:250, 76085, Merck) and anti-rabbit IgG Atto 647N antibody (1:250, 40839, Merck). Coverslips were mounted with ProLong Gold antifade reagent with DAPI (Invitrogen). Peptides were imaged using their 6-FAM fluorescent tag with a 488 nm argon laser. Imaging was performed on a Zeiss LSM880 upright confocal microscope using a 40x/1.4 NA oil objective. Z-stacks comprising of 9–13 × 1 μm sections were acquired. Images were captured using identical settings. The region of interest (~0.6 μm^2) was quantified in three different locations over the spindle, cytoplasm and in the non-cell region of background. Images were analysed using Fiji (v.2.9.0).

[1] = molecular target: T1, CHC^ankle (clathrin heavy chain aa 358–574) (Homo sapiens, UniProt Q00610); experiment: Fluorescence polarisation direct binding assay, CHC ankle WT; settings: direct binding FP, FAM labelled peptides; CHC WT (385–574); mean of three experiments ± SD; read-out: KD, stapled and control peptides, CHC WT
T1 construct: we used the minimal ankle region of CHC (CHC^ankle, aa 358–574); GST (TEV-cleavable); made in house
T1 sequence (Q00610 358-574): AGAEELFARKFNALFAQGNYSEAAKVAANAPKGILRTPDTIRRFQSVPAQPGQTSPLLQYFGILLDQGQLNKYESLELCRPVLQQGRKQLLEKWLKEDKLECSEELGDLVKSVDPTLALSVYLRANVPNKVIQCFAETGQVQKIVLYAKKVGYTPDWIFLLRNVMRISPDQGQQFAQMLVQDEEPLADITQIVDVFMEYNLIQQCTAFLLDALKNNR
Procedure: (§1) Binding affinity of CHC and TACC3 peptides was calculated based on fluorescence polarization assays performed as reported previously, using linear and stapled FAM-TACC3 peptides corresponding to aa 549–570 of human TACC3 protein. Linear peptides were purchased from PPR (Fareham, UK); Alta Bioscience (Redditch, UK); Biomatik Corporation (Ontario, Canada). Stock solutions of peptides were 10 mM in DMSO. Binding assays were performed in triplicate in the binding buffer 20 mM HEPES pH 7.5, 150 mM NaCl, 5 mM DTT, 0.05% Tween-20. Data analysis was performed using a one-site specific binding model in Prism (GraphPad software, v10.1.0).

K507A-CHC^ankle = molecular target: T2, K507A-CHC^ankle (Homo sapiens, UniProt Q00610, K507A); experiment: Fluorescence polarisation direct binding assay, K507A-CHC ankle; settings: direct binding FP, FAM labelled peptides; CHC with K507A substitution; mean of three experiments ± SD; read-out: KD, stapled and control peptides, CHC K507A
T2 construct: we used the minimal ankle region of CHC (CHC^ankle, aa 358–574); GST (TEV-cleavable); made in house
T2 sequence (Q00610 358-574 K507A): T1 sequence (Q00610 358-574) with K150A
Source text: CHC constructs for binding studies were produced during previous work by cloning the respective CHC coding sequence of Q00610 (CLH1_HUMAN) aa 1–574 and 358–574, respectively) into a modified pGEX vector containing a TEV-cleavable GST tag[26]. Point mutations K506A and K507A were introduced by site-directed mutagenesis. GB1-TACC3 is the small protein GB1[47] fused to a short, disordered peptide sequence from human TACC3 (Q9Y6A5, aa 545–573). This hybrid sequence was cloned into a pETM6T1 vector which contains a TEV protease-cleavable N-terminal His-NusA tag.
as §1

With `CC(C)C[C@H](NC(=O)[C@H](C)NC(=O)[C@H](CO)NC(=O)[C@H](CCC(=O)O)NC(=O)[C@H](CCCCN)NC(=O)c1ccc2c(c1)C(=O)OC21c2ccc(O)cc2Oc2cc(O)ccc21)C(=O)N[C@@H](CCCNC(=N)N)C(=O)N[C@@H](CCCCN)C(=O)N[C@@H](CCC(N)=O)C(=O)N[C@@H](CCC(=O)O)C(=O)N[C@@H](CC(C)C)C(=O)N[C@@H](CC(C)C)C(=O)N[C@@H](CC(C)C)C(=O)N[C@@H](CCC(=O)O)C(=O)N[C@@H](Cc1ccccc1)C(=O)N[C@@H](CC(=O)O)C(=O)N1CCC[C@H]1C(=O)N[C@@H](CC(C)C)C(=O)N[C@@H](Cc1ccccc1)C(=O)N[C@@H](CCCNC(=N)N)C(N)=O` [Opt P6 TACC3 S558E] (5FAM-KESALRKQELLLEFDPLFR-NH2; N-terminus and C-terminus assumed) the “cell permeability seen by confocal imaging” value (HeLa cells; fixed HeLa cells, 5 h after adding 5 μM FAM-peptide to the culture medium) was “not sufficiently cell permeable”.

`CC(C)C[C@H](NC(=O)[C@H](C)NC(=O)[C@H](CO)NC(=O)[C@H](CCC(=O)O)NC(=O)[C@H](CCCCN)NC(=O)COCCOCCOCCNC(=O)c1ccc2c(c1)C1(OC2=O)c2ccc(O)cc2Oc2cc(O)ccc21)C(=O)N[C@@H](CCCNC(=N)N)C(=O)N[C@@H](CCCCN)C(=O)N[C@@]1(C)CCCC=CCCC[C@@](C)(C(=O)N[C@@H](CCC(=O)O)C(=O)N[C@@H](Cc2ccccc2)C(=O)N[C@@H](CC(=O)O)C(=O)N2CCC[C@H]2C(=O)N[C@@H](CC(C)C)C(=O)N[C@@H](Cc2ccccc2)C(=O)N[C@@H](CCCNC(=N)N)C(=O)N[C@@H](CC(=O)O)C(=O)N[C@@H](CO)C(N)=O)NC(=O)[C@H](CC(C)C)NC(=O)[C@H](CC(C)C)NC(=O)[C@H](CCC(=O)O)NC1=O` [Opt PEG3 SP TACC3] ({6FAM-AEEEA}-KESALRK[S5]ELL[S5]EFDPLFRDS-NH2; staple 8-12) was tested, and the “colocalisation with endogenous TACC3 on the mitotic spindle” value (HeLa cells; fixed mitotic HeLa cells, FAM-labelled peptides, confocal microscopy) was “colocalised with endogenous TACC3 on the mitotic spindle” and the “reduction of endogenous TACC3 levels in the mitotic spindle” value (HeLa cells; metaphase HeLa cells, peptide 2.5, 5 and 10 μM, 5 h, compared to the negative control SP TACC3 peptide) was “up to 40%”.

`CC(C)C[C@H](NC(=O)[C@H](Cc1ccc(O)cc1)NC(=O)[C@H](CC(C)C)NC(=O)[C@]1(C)CCCC=CCCC[C@](C)(NC(=O)[C@H](C)NC(=O)[C@H](CO)NC(=O)[C@H](CCC(=O)O)NC(=O)[C@H](CCCCN)NC(=O)[C@H](Cc2ccccc2)NC(=O)c2ccc3c(c2)C2(OC3=O)c3ccc(O)cc3Oc3cc(O)ccc32)C(=O)N[C@@H](CCCNC(=N)N)C(=O)N[C@@H](CCCCN)C(=O)N[C@@H](CCC(N)=O)C(=O)N1)C(=O)N[C@@H](CCCCN)C(=O)N[C@@H](Cc1ccccc1)C(=O)N[C@@H](CC(=O)O)C(=O)N1CCC[C@H]1C(=O)N[C@@H](CC(C)C)C(=O)N[C@@H](CC(C)C)C(=O)N[C@@H](CCCNC(=N)N)C(=O)N[C@@H](CC(=O)O)C(=O)N[C@@H](CO)C(N)=O` [SP2] (6FAM-FKESA[S5]RKQ[S5]LYLKFDPLLRDS-NH2; staple 6-10) showed a Kd [1] of 145 ± 3 µM and a Kd (K507A-CHC^ankle) of 23 ± 5 µM.

`CC(C)C[C@@H]1NC(=O)[C@H](C)NC(=O)[C@H](CO)NC(=O)[C@@](C)(NC(=O)[C@H](CCCCN)NC(=O)[C@H](Cc2ccccc2)NC(=O)c2ccc3c(c2)C2(OC3=O)c3ccc(O)cc3Oc3cc(O)ccc32)CCCC=CCCC[C@@](C)(C(=O)N[C@@H](CCCCN)C(=O)N[C@@H](CCC(N)=O)C(=O)N[C@@H](CC(=O)O)C(=O)N[C@@H](CC(C)C)C(=O)N[C@@H](Cc2ccc(O)cc2)C(=O)N[C@@H](CC(C)C)C(=O)N[C@@H](CCCCN)C(=O)N[C@@H](Cc2ccccc2)C(=O)N[C@@H](CC(=O)O)C(=O)N2CCC[C@H]2C(=O)N[C@@H](CC(C)C)C(=O)N[C@@H](CC(C)C)C(=O)N[C@@H](CCCNC(=N)N)C(=O)N[C@@H](CC(=O)O)C(=O)N[C@@H](CO)C(N)=O)NC1=O` [SP3D] (6FAM-FK[S5]SAL[S5]KQDLYLKFDPLLRDS-NH2; staple 3-7) showed a Kd [1] of 92 ± 3 µM and a Kd (K507A-CHC^ankle) of 23 ± 6 µM.

For `CC(C)C[C@@H]1NC(=O)[C@H](C)NC(=O)[C@H](CO)NC(=O)[C@@](C)(NC(=O)[C@H](CCCCN)NC(=O)[C@H](Cc2ccccc2)NC(=O)c2ccc3c(c2)C(=O)OC32c3ccc(O)cc3Oc3cc(O)ccc32)CCCC=CCCC[C@@](C)(C(=O)N[C@@H](CCCCN)C(=O)N[C@@H](CCC(N)=O)C(=O)N[C@@H](CCC(=O)O)C(=O)N[C@@H](CC(C)C)C(=O)N[C@@H](Cc2ccc(O)cc2)C(=O)N[C@@H](CC(C)C)C(=O)N[C@@H](CCCCN)C(=O)N[C@@H](Cc2ccccc2)C(=O)N[C@@H](CC(=O)O)C(=O)N2CCC[C@H]2C(=O)N[C@@H](CC(C)C)C(=O)N[C@@H](CC(C)C)C(=O)N[C@@H](CCCNC(=N)N)C(=O)N[C@@H](CC(=O)O)C(=O)N[C@@H](CO)C(N)=O)NC1=O` [SP3E] (5FAM-FK[S5]SAL[S5]KQELYLKFDPLLRDS-NH2; staple 3-7), the Kd [1] was 78 ± 3 µM and the Kd (K507A-CHC^ankle) was 22 ± 6 µM.

`CC(C)C[C@H](NC(=O)[C@H](C)NC(=O)[C@H](CO)NC(=O)[C@H](CCC(=O)O)NC(=O)[C@H](CCCCN)NC(=O)[C@H](Cc1ccccc1)NC(=O)c1ccc2c(c1)C(=O)OC21c2ccc(O)cc2Oc2cc(O)ccc21)C(=O)N[C@@H](CCCNC(=N)N)C(=O)N[C@@H](CCCCN)C(=O)N[C@@H](CCC(N)=O)C(=O)N[C@@H](CCC(=O)O)C(=O)N[C@@H](CC(C)C)C(=O)N[C@@H](Cc1ccc(O)cc1)C(=O)N[C@@]1(C)CCCC=CCCC[C@@](C)(C(=O)N[C@@H](CC(C)C)C(=O)N[C@@H](CC(C)C)C(=O)N[C@@H](CCCNC(=N)N)C(=O)N[C@@H](CC(=O)O)C(=O)N[C@@H](CO)C(N)=O)NC(=O)[C@H](CC(=O)O)NC(=O)[C@H](Cc2ccccc2)NC(=O)[C@H](CCCCN)NC1=O` [SP5E] (5FAM-FKESALRKQELY[S5]KFD[S5]LLRDS-NH2; staple 13-17) was tested, and the Kd (K507A-CHC^ankle) was 146 ± 3 µM.

Reference: publication PMC12204359, “Mechanistic Design of Cell-Penetrating Disruptors for a Phospho-Dependent Interaction” (Research Square, 2025)
